Assay results published in the NIST ThermoML archive (doi:10.1016/j.fluid.2018.01.023).
± gives the expanded uncertainty stated by the source.

Experiment: xn = mol fraction of the nth substance listed
Settings: 92 K, Liquid, Buoyancy - hydrostatic balance with magnetic suspension - one sinker

**Q.** For `N#N` [nitrogen] + C, which mass density (159.1 kPa, x2 = 0.884) is on record?
**A.** Its mass density is 451 ± 0.7 kg/m3.

**Q.** For `CC` [ethane] + N#N, which mass density (138.3 kPa, x1 = 0.967) is on record?
**A.** Its mass density is 650.5 ± 1.2 kg/m3.

**Q.** And the mass density (1039.4 kPa, x1 = 0.952)?
**A.** Its mass density is 651.3 ± 0.9 kg/m3.
